Measured values taken from PubChem BioAssay AID179 (DTP/NCI, 2004).
The source made the active and inactive calls.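 How the source made its calls: active means compounds giving half or more protection of infected cells from virus-caused growth loss, again on retest; inactive means the rest.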

Test system: CEM cells HIV-1 protection, formazan growth assay
Assay: NCI AIDS Antiviral Assay
Conditions: for IC50: measured here: growth of uninfected CEM cells
Method in brief: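 Soluble formazan readout of cell growth; CEM cells ± HIV-1; 5 drug concs. ≥50% protection → retest; ≥50% again = moderately active; reproducible 100% = confirmed active.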

Row | SMILES | EC50 | IC50 | outcome
1 | Cc1ccc(N=C2C(c3ccccc3)=C(SC3=C(c4ccccc4)C(=Nc4ccc(C)cc4)c4ccccc43)c3ccccc32)cc1 | > 200 µM | 174 µM | –
2 | C[PH+](C)CC[PH+](C)CC[PH+](C)C.[C-]#[O+].[C-]#[O+].[C-]#[O+].[Cr] | > 2.88 µM | > 2.88 µM | –
3 | C/C(CC(=O)CCCC(=O)Nc1ccc(Cl)cc1Cl)=N/NC(=O)CC#N | > 18.2 µM | > 18.2 µM | –
4 | CNC(=O)N(CCC#N)CCCN(C(=O)N(C)C)c1ccccc1 | > 200 µM | > 200 µM | –
5 | N#CCCN(c1ccc(/C=N/c2nc(-c3ccccc3)cs2)cc1)S(=O)(=O)c1ccccc1 | > 55 µM | > 55 µM | –
6 | COc1cccc(C=C2N=C(c3ccccc3)N(n3c(-c4ccccc4)nc4ccccc4c3=O)C2=O)c1 | > 200 µM | 37.2 µM | –
7 | Nc1ncnc2c1ncn2C1OC(CO)(C(F)(F)F)C(O)C1O (configuration not stated) | > 200 µM | 182 µM | –
8 | COc1cc(NC=O)c(OC)cc1Cl | – | – | inactive
9 | COC1(C)C[C@@]23CC[C@@H]4C(C)(C(=O)O)CCCC4(C)[C@@H]2CC[C@@H]1C3 (some centres not stated) | > 200 µM | 120 µM | –
10 | Brc1ccc(C2CC(c3cccc4ccccc34)=Nc3ccccc3S2)cc1 (configuration not stated) | > 11.7 µM | > 11.7 µM | –
11 | N#CN/C(N)=N/S(=O)(=O)c1ccc([N+](=O)[O-])cc1 | > 933 µM | 257 µM | –
12 | CSC(=O)/C=C1\SS/C(=C\C(=O)SC)S1 | > 200 µM | 3.09 µM | –
13 | CCN1C[C@]2(C)CC[C@H](OC)C34C1C([C@H](OC(C)=O)[C@@H]32)[C@@]1(OC)C[C@H](OC)[C@H]2C[C@@H]4[C@@H]1[C@H]2O | > 77.6 µM | > 77.6 µM | –
14 | CCOC(=O)c1cn2c([nH]c3ccccc32)c(C#N)c1=O | > 47.9 µM | > 47.9 µM | –
15 | C[N+](C)(C)CC1CCCCCCCCCCC1=O (configuration not stated) | 60.3 µM | 148 µM | –
16 | CS(=O)(=O)OCCN1CCN(C(=O)c2cccc3c(Nc4ccc(S(N)(=O)=O)cc4)c4ccccc4nc23)CC1 | > 51.3 µM | > 51.3 µM | –
17 | O=c1[nH]c(Nc2ccc(Cl)c(C(F)(F)F)c2)nc2nc[nH]c12 | > 200 µM | 89.1 µM | –
18 | NNC(=O)c1c/c(=N\NC(=O)CC(=O)Nc2ccccc2Cl)c2ccccc2o1 | > 1.74 µM | > 1.74 µM | –
19 | COc1ccc(-c2nc(-c3cnccn3)n(C3OC(CO)C(O)C(O)C3O)n2)cc1 (configuration not stated) | > 200 µM | > 200 µM | –
20 | N#CC(C(=O)C(N)=O)c1ccccc1Cl (configuration not stated) | > 427 µM | > 427 µM | –
21 | O=C(Nc1ccccc1S)OCc1ccccc1 | 34.7 µM | 46.8 µM | –
22 | N#CC12CCCC(=O)N1c1ccccc1S2 (configuration not stated) | > 195 µM | 105 µM | –

Row | SMILES | EC50 | IC50 | outcome
23 | O=C(O)[C@H]1CCCN1C(=O)c1ccccc1SSc1ccccc1C(=O)N1CCC[C@H]1C(=O)O | > 200 µM | > 200 µM | –
24 | Cc1ccnc2c1C(=O)C(=O)C=C2N1CCC(C)CC1 | – | – | inactive
25 | C=C(C)[C@@]1(O)O[C@H]2C[C@@]3(C)OC(=CC3=O)/C(C)=C\[C@@H]3OC(=O)[C@@]1(C)[C@H]32 | > 200 µM | 5.25 µM | –
26 | COc1ccc(CN2COc3c(cc(Cl)c4cccnc34)C2)cc1 | > 200 µM | 1.55 µM | –
27 | CCOC(=O)C/C(O)=C(/C=N/C(=S)NNC(C)=O)C(=O)OCC | > 200 µM | > 200 µM | –
28 | Cc1ccc(NC(=O)C(=O)CC(=O)c2c(C)n([O-])c3ccccc3[n+]2=O)cc1C | > 64.6 µM | > 64.6 µM | –
29 | CN1c2ccccc2N=Cc2c1oc1ccc3ccccc3c1c2=O | 46.8 µM | 50.1 µM | –
30 | CC1N=C(c2ccccc2)c2cc(Cl)ccc2NC1=O (configuration not stated) | > 18.2 µM | > 18.2 µM | –
31 | CCOC(=O)c1nc2ccc(C(F)(F)F)cc2nc1Nc1ccc(OC)c(OC)c1 | > 200 µM | > 200 µM | –
32 | CC1(C)CC(=O)C2=C(C1)C(c1ccccc1Cl)C1C(=O)CC(C)(C)CC1(O)O2 (configuration not stated) | > 200 µM | 28.8 µM | –
33 | N.N.N.N.[Cl-].[Co+3].[N-]=[N+]=[N-].[N-]=[N+]=[N-] | – | – | inactive
34 | CCCCNc1nc(N)nc(Nc2ccc(Br)cc2)c1N=O | > 55 µM | 23.4 µM | –
35 | O=C(O)c1ccc(S(=O)(=O)c2ccccc2[N+](=O)[O-])cc1 | > 200 µM | > 200 µM | –
36 | C=CCNc1nc2c(s1)c(C)c(O)c1ccccc12 | > 200 µM | 3.55 µM | –
37 | COc1cnc([C@H]2CCC3[C@@H]4CC=C5C[C@@H](O)CC[C@]5(C)C4CC[C@@]32C)s1 (some centres not stated) | > 4.9 µM | > 4.9 µM | –
38 | c1ccc2c(c1)c1c(n2CCOCCN2CCOCC2)CCCC1 | > 200 µM | 112 µM | –
39 | CC/C(=N\NS(=O)(=O)c1ccccc1)c1ccccc1 | – | – | inactive
40 | Cc1ccc(S(=O)(=O)Oc2nc3ccccc3nc2N(S(=O)(=O)c2ccc(C)cc2)S(=O)(=O)c2ccc(C)cc2)cc1 | > 200 µM | 17.4 µM | –
41 | NNC(=O)C(=O)N/N=C1\CCC(=O)CC1C(=O)CCC(=O)Nc1ccc(Cl)cc1 (configuration not stated) | > 32.4 µM | > 32.4 µM | –
42 | CC(=O)NC1=NC(=O)/C(=C/c2ccc(Cl)cc2Cl)N1C | – | – | inactive
43 | CC(=O)c1cc2ccccc2n(O)c1=N | > 200 µM | > 200 µM | –
44 | COc1cccc(CCNC(=O)CC#N)c1 | – | – | inactive
